Assay results reported in the NIST ThermoML archive (doi:10.1016/j.jct.2015.10.026).

Assay: mn = molality of the nth substance listed, in mol/kg
Conditions: 100 kPa, Liquid; for viscosity: Capillary tube (Ostwald / Ubbelohde) method; for electrical conductivity: Direct current cell with electrodes; for mass density: Vibrating tube method

CCCCn1cc[n+](C)c1.NCCS(=O)(=O)[O-] [1-butyl-3-methylimidazolium taurate] + O
Conditions | electrical conductivity [S/m] | mass density [kg/m3] | viscosity [mPa·s]
293.15 K, m1 = 0.00165 | 0.0072 | – | –
293.15 K, m1 = 0.00227 | 0.0097 | – | –
293.15 K, m1 = 0.00341 | 0.0142 | – | –
293.15 K, m1 = 0.00511 | 0.0205 | 998.36 | –
293.15 K, m1 = 0.00752 | 0.0293 | 998.46 | –
293.15 K, m1 = 0.00917 | – | 998.52 | –
293.15 K, m1 = 0.01078 | 0.0403 | 998.59 | 1.034
293.15 K, m1 = 0.01261 | 0.0464 | 998.67 | 1.038
293.15 K, m1 = 0.01552 | 0.0552 | 998.81 | 1.043
293.15 K, m1 = 0.01938 | 0.0668 | 999 | 1.05
293.15 K, m1 = 0.02239 | 0.0757 | 999.16 | –
293.15 K, m1 = 0.02555 | – | 999.33 | 1.06
293.15 K, m1 = 0.02746 | – | 999.43 | –
293.15 K, m1 = 0.03626 | – | – | 1.074
293.15 K, m1 = 0.05001 | – | – | 1.093
293.15 K, m1 = 0.0693 | – | – | 1.117
293.15 K, m1 = 0.08462 | – | – | 1.133
298.15 K, m1 = 0.00165 | 0.0089 | – | –
298.15 K, m1 = 0.00227 | 0.0121 | – | –
298.15 K, m1 = 0.00341 | 0.0177 | – | –
298.15 K, m1 = 0.00511 | 0.0257 | 997.16 | –
298.15 K, m1 = 0.00752 | 0.0365 | 997.24 | –
298.15 K, m1 = 0.00917 | – | 997.3 | –
298.15 K, m1 = 0.01078 | 0.0498 | 997.36 | 0.925
298.15 K, m1 = 0.01261 | 0.0571 | 997.43 | 0.928
298.15 K, m1 = 0.01552 | 0.0684 | 997.56 | 0.934
298.15 K, m1 = 0.01938 | 0.0824 | 997.74 | 0.94
298.15 K, m1 = 0.02239 | 0.0922 | 997.89 | –
298.15 K, m1 = 0.02555 | – | 998.06 | 0.95
298.15 K, m1 = 0.02746 | – | 998.16 | –
298.15 K, m1 = 0.03626 | – | – | 0.965
298.15 K, m1 = 0.05001 | – | – | 0.981
298.15 K, m1 = 0.0693 | – | – | 1.004
298.15 K, m1 = 0.08462 | – | – | 1.018
303.15 K, m1 = 0.00165 | 0.0104 | – | –
303.15 K, m1 = 0.00227 | 0.0141 | – | –
303.15 K, m1 = 0.00341 | 0.0206 | – | –
303.15 K, m1 = 0.00511 | 0.0299 | 995.73 | –
303.15 K, m1 = 0.00752 | 0.0425 | 995.79 | –
303.15 K, m1 = 0.00917 | – | 995.83 | –
303.15 K, m1 = 0.01078 | 0.0587 | 995.88 | 0.835
303.15 K, m1 = 0.01261 | 0.0675 | 995.94 | 0.838
303.15 K, m1 = 0.01552 | 0.0805 | 996.06 | 0.844
303.15 K, m1 = 0.01938 | 0.0965 | 996.22 | 0.85
303.15 K, m1 = 0.02239 | 0.107 | 996.37 | –
303.15 K, m1 = 0.02555 | – | 996.53 | 0.86
303.15 K, m1 = 0.02746 | – | 996.63 | –
303.15 K, m1 = 0.03626 | – | – | 0.874
303.15 K, m1 = 0.05001 | – | – | 0.89
303.15 K, m1 = 0.0693 | – | – | 0.911
303.15 K, m1 = 0.08462 | – | – | 0.925
308.15 K, m1 = 0.00165 | 0.0119 | – | –
308.15 K, m1 = 0.00227 | 0.0161 | – | –
308.15 K, m1 = 0.00341 | 0.0237 | – | –
308.15 K, m1 = 0.00511 | 0.0344 | 994.08 | –
308.15 K, m1 = 0.00752 | 0.0488 | 994.12 | –
308.15 K, m1 = 0.00917 | – | 994.15 | –
308.15 K, m1 = 0.01078 | 0.067 | 994.19 | 0.76
308.15 K, m1 = 0.01261 | 0.0772 | 994.24 | 0.764
308.15 K, m1 = 0.01552 | 0.092 | 994.34 | 0.77
308.15 K, m1 = 0.01938 | 0.111 | 994.48 | 0.776
308.15 K, m1 = 0.02239 | 0.123 | 994.63 | –
308.15 K, m1 = 0.02555 | – | 994.78 | 0.786
308.15 K, m1 = 0.02746 | – | 994.88 | –
308.15 K, m1 = 0.03626 | – | – | 0.801
308.15 K, m1 = 0.05001 | – | – | 0.817
308.15 K, m1 = 0.0693 | – | – | 0.837
308.15 K, m1 = 0.08462 | – | – | 0.851
313.15 K, m1 = 0.00165 | 0.0135 | – | –
313.15 K, m1 = 0.00227 | 0.0182 | – | –
313.15 K, m1 = 0.00341 | 0.0265 | – | –
313.15 K, m1 = 0.00511 | 0.0385 | 992.21 | –
313.15 K, m1 = 0.00752 | 0.0544 | 992.23 | –
313.15 K, m1 = 0.00917 | – | 992.26 | –
313.15 K, m1 = 0.01078 | 0.0749 | 992.29 | 0.698
313.15 K, m1 = 0.01261 | 0.0858 | 992.34 | 0.702
313.15 K, m1 = 0.01552 | 0.102 | 992.42 | 0.708
313.15 K, m1 = 0.01938 | 0.121 | 992.55 | 0.715
313.15 K, m1 = 0.02239 | 0.134 | 992.67 | –
313.15 K, m1 = 0.02555 | – | 992.8 | 0.725
313.15 K, m1 = 0.02746 | – | 992.88 | –
313.15 K, m1 = 0.03626 | – | – | 0.74
313.15 K, m1 = 0.05001 | – | – | 0.757
313.15 K, m1 = 0.0693 | – | – | 0.779
313.15 K, m1 = 0.08462 | – | – | 0.793
